Assay results: patent US20210121440A1, “ACNE TREATMENT” (priority 2003, published 2021)

What was measured:
[1] = tested on: patients having acne papulopustolosa; assay: Clinical judgement of number of lesions and degree of severity index (Allen and Smith) in acne patients treated orally; assay type: in vivo, human
Experimental: (§1) For treating the inflammatory acne 10 patients having acne papulopustolosa (m:f 6:4, age 19±5 years) were treated orally with a selective 5-lipoxygenase inhibitor, namely with (±)-1-1.benzo[b]thien—2-ylethyl)-1-hydroxyurea (Zileuton) 4×600 mg/d p.o. for a period of three months. The number of lesions and the general degree of severity index according to Allen and […] (Allen B S, Smith J G: Various parameters for grading acne. Arch Dermatol. 1982; 118: 23-25) were clinically judged. Moreover, the surface lipids using Sebumeter® and the liver enzymes in the serum were determined at the beginning of the study, in the 2nd, 4th, 8th and 12th weeks of treatment and 2 weeks after completion of the therapy. The LTB4 detection in the blood by radio-immuno-assay and the lipid fractions in the serum by chromatography were examined at the beginning and in the 12th week of treatment. The patients were photographed at the beginning and at the end of the treatment. The degree of severity index of acne decreased continuously and dependent on the time (41±28% of the initial value in the 12th week of treatment; p<0.05). […] The degree of clinical improvement strongly correlated with the reduction of the total lipids in the sebum (p=0.0009, r^2=0.81) and the free fatty acid (p=0.0003, r^2=0.82). […] To sum up, thus first indirect proofs could be furnished for a genuine inflammatory etiology of acne.

[2] = tested on: total lipids and pro-inflammatory lipid fractions in the sebum; assay: Lipids and lipid fractions in the sebum by chromatography; assay type: in vivo, human; conditions: 12th week of treatment, 4×600 mg/d p.o.
Experimental: as §1

LTB4 in the blood = assay: LTB4 detection in the blood by radio-immuno-assay; assay type: in vivo, human; conditions: beginning vs 12th week of treatment; 4×600 mg/d p.o.
Experimental: as §1

[3] = tested on: patients having acne papulopustolosa; assay: Side-effects in treated acne patients; assay type: in vivo, human; conditions: 4×600 mg/d p.o. for three months; 10 patients
Experimental: as §1, with “of acne. […]” for “of acne.”

surface lipids = assay: Surface lipids using Sebumeter; assay type: in vivo, human; conditions: 4×600 mg/d p.o. for three months
Experimental: as §1

patients = conditions: oral administration; especially older patients having an impaired renal function; cited from earlier work

CC(c1cc2ccccc2s1)N(O)C(N)=O (racemic) [Zileuton, (±)-1-(1-benzo[b]thien-2-ylethyl)-1-hydroxy-urea]
response of comedones ([1]; 4×600 mg/d p.o. for three months): comedones did not respond | decrease of the number of inflammatory lesions up to ([1]; 4×600 mg/d p.o. for three months, p<0.01): 29±24% | degree of severity index of acne, % of the initial value ([1]; 12th week of treatment, 4×600 mg/d p.o., 10 patients, p<0.05): 41±28% | all examined parameters during follow-up ([1]; two-weeks' follow-up phase after completion of the therapy): remained practically unchanged | decrease of lipoperoxides in the sebum [2]: 26±30% | decrease of pro-inflammatory free fatty acids in the sebum [2]: 22±18% | decrease of total lipids in the sebum ([2]; p<0.05): 35±51% | LTB4 in the blood (LTB4 in the blood): not influenced | subjective and objective side-effects [3]: Neither subjective nor objective side-effects were noticed | surface lipids (surface lipids): not influenced

CC(C(=O)O)c1ccc2oc(-c3ccc(Cl)cc3)nc2c1 (centres unmarked) [benoxaprofen]
disadvantageous effects observed in clinical tests (patients): a photosensitivity, exzema, milii, onycholysis and a hepatotoxicity with jaundice
